Measured values published in US20150258168A1, “MODULATION OF PODOPLANIN MEDIATED PLATELET ACTIVATION” (OKLAHOMA MEDICAL RESEARCH FOUNDATION, priority 2012, published 2015).
“Also recorded” adds a separate entry of the source.

System: NE-Pdpn^−/− mice
Test: tMCAO-induced ischemia/reperfusion, brain bleeding and Evans blue leakage
Assay type: in vivo
Conditions: NE-Pdpn^−/− mice after tMCAO (1.5 hr ischemia and 24 hr reperfusion), 100 mg/kg body weight, i.p., n=2/group, pilot experiment
Protocol: FIG. 12. […] Gross images of cronal sections of NE− Pdpn^−/− brains. The mice (6-wks-old) were treated either with SEW2871 or DMSO (solvent of SEW2871) immediately after reperfusion. 24 hrs after the reperfusion, mice were intravenously injected with Evans blue, sacrificed and immediately perfused with saline and 4% PFA. Arrows show bleeding. Asterisks show leakage of Evans blue. R, right side (tMCAO side).
To determine the role of PDPN in astrocytes in protecting vascular integrity in the adult brain after injury, the inventor has have established a transient middle cerebral artery occlusion (tMCAO)-induced ischemia/reperfusion model that is widely accepted as a model for secondary hemorrhage in human patients with ischemic stroke (Fan et al., 2010). […] In addition, he will include Magnetic Resonance Imaging (MRI) to detect early hemorrhage, monitor its progress, and quantify bleeding volume (every 10 h). […]
The S1P receptor S1P1 is highly expressed on vascular endothelial cells (Kono et al., 2004). […] Cerebral vascular permeability/edema will be detected by intravenous injection of Evans blue and the wet/dry ratio of the brains. Vascular integrity will be analyzed by confocal imaging and/or TEM as described in C1.3.3. […]

FC(F)(F)c1cccc(-c2noc(-c3cc(-c4ccccc4)c(C(F)(F)F)s3)n2)c1 [SEW2871]
vascular leakage (Evans blue): ameliorated | brain bleeding (100 mg/kg): ameliorated; also recorded: ameliorates brain bleeding
